Consider two molecules from ChEMBL document CHEMBL3638466 (2015).

The target of the assay is Maternal embryonic leucine zipper kinase (Homo sapiens, UniProt Q14680). Put plainly: Kinase Assay: MELK activity was determined in the presence or absence of compounds using fluorescein isothiocyanate-labeled (FITC-labeled) histone H3 peptide as a substrate. The extent of FITC-labeled histone H3 peptide phosphorylation was measured by immobilized metal ion affinity-based fluorescence polarization (IMAP) technology (Sportsman J R, et al., Assay Drug Dev. Technol. 2: 205-14, 2004) …. The assay is classed as single protein. (In fluorescence polarisation assays a small probe gives low polarisation when free and higher when bound to something large.)
Maternal embryonic leucine zipper kinase, sequence (Q14680 whole entry): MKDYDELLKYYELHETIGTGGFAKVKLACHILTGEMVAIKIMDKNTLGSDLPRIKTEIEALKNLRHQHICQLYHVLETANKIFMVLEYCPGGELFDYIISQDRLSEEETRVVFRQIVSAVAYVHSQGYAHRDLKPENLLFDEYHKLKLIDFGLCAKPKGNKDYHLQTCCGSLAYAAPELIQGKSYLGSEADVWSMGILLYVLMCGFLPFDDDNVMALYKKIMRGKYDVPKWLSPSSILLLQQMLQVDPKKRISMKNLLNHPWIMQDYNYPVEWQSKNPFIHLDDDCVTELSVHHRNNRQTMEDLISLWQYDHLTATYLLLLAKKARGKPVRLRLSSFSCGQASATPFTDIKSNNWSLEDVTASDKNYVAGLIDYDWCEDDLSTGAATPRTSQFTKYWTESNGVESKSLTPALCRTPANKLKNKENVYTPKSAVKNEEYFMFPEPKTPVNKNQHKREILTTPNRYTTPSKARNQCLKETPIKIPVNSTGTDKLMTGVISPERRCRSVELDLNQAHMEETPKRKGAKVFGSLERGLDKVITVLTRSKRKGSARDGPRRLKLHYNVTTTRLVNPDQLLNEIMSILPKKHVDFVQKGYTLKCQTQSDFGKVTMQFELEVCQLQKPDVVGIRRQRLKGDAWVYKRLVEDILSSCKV

For the molecule `CC(=O)c1cnc2ccc(-c3cc(F)c(O)c(Cl)c3)nc2c1N[C@H]1CC[C@H](NC(=O)[C@@H]2CCCN2)CC1`, the IC50 (commonly the concentration that gives 50% inhibition) is 2.4 nM.

`CC(=O)c1cnc2ccc(-c3cc(Cl)c(O)c(Cl)c3)nc2c1NC[C@H]1CC[C@H](N(C)C)CC1` had an IC50 of 0.6 nM.
